# Experimental data taken from PubChem BioAssay AID379.
# Biological target: Adenylate kinase isoenzyme 1 (Homo sapiens) (UniProt P00568)
# Test: ligand-induced stabilization of human AK1 – biophysical, DSF, SYPRO orange (AID 379)
# Settings: purified AK1, DSF SYPRO orange thermal shift; at 5 µM; protein 1 µM; buffer 10 mM HEPES; stronger effect = higher value
# Sequence of Adenylate kinase isoenzyme 1 (Homo sapiens) (P00568 whole entry, looked up): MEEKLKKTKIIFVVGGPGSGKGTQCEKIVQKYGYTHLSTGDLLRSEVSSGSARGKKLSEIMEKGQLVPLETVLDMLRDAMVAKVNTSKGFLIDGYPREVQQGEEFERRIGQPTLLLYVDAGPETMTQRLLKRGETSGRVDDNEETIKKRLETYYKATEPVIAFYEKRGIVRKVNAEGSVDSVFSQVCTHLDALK
compound,measurement,value
Nc1ncnc2c1ncn2[C@@H]1O[C@H](COP(=O)(O)OP(=O)(O)OP(=O)(O)OP(=O)(O)OP(=O)(O)OC[C@H]2O[C@@H](n3cnc4c(N)ncnc43)[C@H](O)[C@@H]2O)[C@@H](O)[C@H]1O,Tm shift,15.4 Celsius
